According to patent US20050152847A1, “Novel formulation” (priority 2002, published 2005):
Structures can show the parent of a compound that is named as a salt. Each block holds one molecule with its values, some of them ahead of it.

Tests used:
[1] = iso-osmotic with serum/saline; cited from earlier work
stable asthma patients = conditions: fifteen stable asthma patients; lactose dry powder alone; no dosage data given; cited from earlier work
[2] = Concentration of aqueous solution iso-osmotic with serum/saline; type: physicochemical; conditions: expected from number of molecules, not measured
Excerpt: We preferably select an excipient with a concentration of at least >5.5%, preferably >7%—compounds that could be regarded as weak osmolytic or non-osmolytic active compounds—teaching away from WO 00/36915. The selected concentration values are based upon the clinical results presented for lactose and mannitol. The physiological condition is pH 7.4 and 276 mOsm.
The osmotic pressure is proportional to the concentration of the solute for nonelectrolytes. The osmotic pressures of solutions of different nonelectrolytes are proportional to the number of molecules in each solution. This means—when having the same amount in grams—a disaccharide will have about half the osmotic pressure as a monosaccharide, which could also be seen in table 1. This type of generalisations could not be used for electrolytes. All disaccharides (e.g. trehalose) would be expected to have an osmotic pressure corresponding to a solution of at least >7% and trisaccharides (e.g. melezitose, raffinose) needed higher concentration in order to be iso-osmotic with a saline solution. The carbohydrate myo-inositol would be expected to have a concentration of less than 5% for iso-osmolytic activity with saline.

[3] = cited from earlier work
[4] = generally regarded; cited from earlier work
[5] = cited from earlier work; remark: listed apart in the source

Structure (SMILES): OC[C@@H](O)[C@@H](O[C@@H]1O[C@H](CO)[C@H](O)[C@H](O)[C@H]1O)[C@H](O)[C@@H](O)CO [Lactitol]
Concentration of aqueous solution iso-osmotic with serum (%) [1]: 7%

Structure (SMILES): OC[C@@H](O)[C@@H](O)[C@H](O)[C@H](O)CO [Mannitol]
Concentration of aqueous solution iso-osmotic with serum (%) [1]: 5.1%

Structure (SMILES): O=C1O[C@H]([C@@H](O)CO)C([O-])=C1O.[Na+] [Sodium ascorbate]
Concentration of aqueous solution iso-osmotic with serum (%) [1]: 3.0%

Structure (SMILES): O=C[C@H](O)[C@@H](O)[C@@H](O)[C@H](O)CO [Galactose]
Concentration of aqueous solution iso-osmotic with serum (%) [1]: 4.9%

Structure (SMILES): OC[C@@H](O)[C@@H](O)[C@H](O)[C@@H](O)CO [Sorbitol]
Concentration of aqueous solution iso-osmotic with serum (%) [1]: 5.5%

Structure (SMILES): OC[C@H]1O[C@@H](O[C@H]2[C@H](O)[C@@H](O)C(O)O[C@@H]2CO)[C@H](O)[C@@H](O)[C@H]1O (stereo partly drawn) [Lactose]
Bronchoconstriction after inhalation of dry powder (stable asthma patients): caused bronchoconstriction
Concentration of aqueous solution iso-osmotic with serum (%) [1]: 9.8%

Structure (SMILES): [Cl-].[Na+] [Sodium chloride]
Concentration of aqueous solution iso-osmotic with serum (%) [1]: 0.9%

Structure (SMILES): Cc1cc(C(C)(C)C)c(O)c(C)c1CC1=NCCN1.Cl [Oxymethazoline-HCl, reference compound]
Concentration of aqueous solution iso-osmotic with serum (%) [1]: 4.9%

Structure (SMILES): CCN(CC)CC(=O)Nc1c(C)cccc1C [Lidocaine-HCl, reference compound]
Concentration of aqueous solution iso-osmotic with serum (%) [1]: 4.4%

Expected concentration of solution iso-osmotic with saline [2]: less than 5%
Structure (SMILES): O[C@H]1[C@H](O)[C@@H](O)[C@H](O)[C@@H](O)[C@H]1O [myo-inositol]

Structure (SMILES): OC[C@H]1O[C@@](CO)(O[C@H]2O[C@H](CO)[C@@H](O)[C@H](O)[C@H]2O)[C@@H](O)[C@@H]1O [Sucrose]
Concentration of aqueous solution iso-osmotic with serum (%) [1]: 9.3%
Moisture sensitivity ([3]; submitted to humidity): very moisture sensitive

Structure (SMILES): O=C(CO)[C@@H](O)[C@H](O)[C@H](O)CO [Fructose]
Concentration of aqueous solution iso-osmotic with serum (%) [1]: 5.1%

Structure (SMILES): OC[C@@H](O)[C@@H](O[C@H]1O[C@H](CO)[C@@H](O)[C@H](O)[C@H]1O)[C@H](O)[C@@H](O)CO [Maltitol]
Toxicity, allergenicity, irritancy [4]: nontoxic, nonallergenic and nonirritant
Concentration of aqueous solution iso-osmotic with serum (%) [1]: 10%
Stability of water solution ([5]; pH 4-9 even at higher temperatures): very stable
Stability of water solution (time stable) ([5]; room temperature and pH 2-9): at least 2 years
Relative humidity at which moisture is absorbed ([3]; 20° C.): ≥ 89%

Structure (SMILES): O=C1O[C@H]([C@@H](O)CO)C(O)=C1O [Ascorbic acid]
Concentration of aqueous solution iso-osmotic with serum (%) [1]: 5.9%

Structure (SMILES): OC[C@@H](O)[C@H](O)[C@@H](O)CO [Xylitol]
Concentration of aqueous solution iso-osmotic with serum (%) [1]: 4.6%
